The values that follow come from patent publication US20220204510A1, “2,3-DIHYDRO-1H-PYRROLIZINE-7-FORMAMIDE DERIVATIVE AND APPLICATION THEREOF” (CHIA TAI TIANQING PHARMACEUTICAL GROUP CO., LTD., priority 2018, published 2022).

Each structure is given as a SMILES string.

For one assay, the target named is T1, CYP1A2 (Homo sapiens, UniProt P05177).
T1 construct: from tissue; host or cells: human liver microsomes
T1 sequence (P05177 1-516): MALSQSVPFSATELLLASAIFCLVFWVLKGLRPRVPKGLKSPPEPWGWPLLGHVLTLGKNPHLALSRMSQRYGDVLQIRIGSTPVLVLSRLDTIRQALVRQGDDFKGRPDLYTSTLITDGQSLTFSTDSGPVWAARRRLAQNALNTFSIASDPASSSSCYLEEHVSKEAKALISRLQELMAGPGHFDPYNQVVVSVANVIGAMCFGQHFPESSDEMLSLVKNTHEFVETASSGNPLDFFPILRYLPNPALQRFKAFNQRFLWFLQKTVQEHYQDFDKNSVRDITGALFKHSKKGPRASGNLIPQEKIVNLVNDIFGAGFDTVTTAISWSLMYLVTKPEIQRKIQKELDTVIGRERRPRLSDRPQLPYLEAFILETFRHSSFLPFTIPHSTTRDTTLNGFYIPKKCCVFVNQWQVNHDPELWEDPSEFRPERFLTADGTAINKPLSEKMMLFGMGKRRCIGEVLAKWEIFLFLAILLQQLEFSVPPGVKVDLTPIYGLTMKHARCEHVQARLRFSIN
Nature of the assay: Inhibition of human liver microsomal cytochrome P450 isoenzymes. Type of assay: in vitro ADME. The conditions noted are these: human liver microsomes. Here is the method: (§1) Experimental objective: to determine the inhibitory effect of the test compound on the activity of human liver microsomal cytochrome P450 isoenzymes (CYP1A2, CYP2C9, CYP2C19, CYP2D6 and CYP3A4). Experimental procedures: first, the test compound (10 mM) was diluted in gradient to prepare working solutions (100× final concentration) at concentrations of: 5, 1.5, 0.5, 0.15, 0.05, 0.015, and 0.005 mM, and working solutions of positive inhibitors for P450 isoenzymes (CYP1A2, CYP2C9, CYP2C19, CYP2D6, and CYP3A4) and the specific substrate mixtures thereof (5 in 1) were prepared simultaneously; human liver microsomes frozen in a−80° C. refrigerator were thawed on ice, and after all thawed, the human liver microsomes were diluted with PB to prepare a working solution at a specific concentration (0.253 mg/mL); 20 μL of the substrate mixture (20 μL of PB was added into the blank well) and 158 μL of the working solution of human liver microsomes were added into the reaction plate which was then placed on ice for use; then 2 μL of the test compound at each concentration (N=1) and a specific inhibitor (N=2) were added into the corresponding well, and the group without the inhibitor (test compound or the positive inhibitor) was added with a corresponding organic solvent as a control sample (the test compound control sample was 1:1 DMSO:MeOH; the positive control sample was 1:9 DMSO:MeOH); after pre-incubation under a 37° C. water bath for 10 min, 20 μL of a coenzyme factor (NADPH) solution was added into the reaction plate and incubated under a 37° C. water bath for 10 min, 400 μL of a cold acetonitrile solution (the internal standard was 200 ng/mL Tolbutamide and Labetalol) was added to terminate the reaction, and the reaction plate was placed on a shaker and shaken for 10 min; after centrifugation at 4,000 rpm for 20 min, 200 μL of the supernatant was collected and added to 100 μL of water to dilute the sample, and, finally, the plate was sealed, oscillated shaken evenly, and subjected to LC/MS/MS detection.
In general terms: Microsomes from liver hold many membrane-bound enzymes, among them those of drug oxidation.

A further assay has as its target T2, CYP2C9 (Homo sapiens, UniProt P11712).
T2 construct: from tissue; host or cells: human liver microsomes
The assay is described as above. Type of assay: in vitro ADME. The conditions noted are these: human liver microsomes. As for the experimental part: as §1

The target in a further assay is T3, CYP3A4 (Homo sapiens, UniProt P08684).
T3 construct: from tissue; host or cells: human liver microsomes
T3 sequence (P08684 whole entry): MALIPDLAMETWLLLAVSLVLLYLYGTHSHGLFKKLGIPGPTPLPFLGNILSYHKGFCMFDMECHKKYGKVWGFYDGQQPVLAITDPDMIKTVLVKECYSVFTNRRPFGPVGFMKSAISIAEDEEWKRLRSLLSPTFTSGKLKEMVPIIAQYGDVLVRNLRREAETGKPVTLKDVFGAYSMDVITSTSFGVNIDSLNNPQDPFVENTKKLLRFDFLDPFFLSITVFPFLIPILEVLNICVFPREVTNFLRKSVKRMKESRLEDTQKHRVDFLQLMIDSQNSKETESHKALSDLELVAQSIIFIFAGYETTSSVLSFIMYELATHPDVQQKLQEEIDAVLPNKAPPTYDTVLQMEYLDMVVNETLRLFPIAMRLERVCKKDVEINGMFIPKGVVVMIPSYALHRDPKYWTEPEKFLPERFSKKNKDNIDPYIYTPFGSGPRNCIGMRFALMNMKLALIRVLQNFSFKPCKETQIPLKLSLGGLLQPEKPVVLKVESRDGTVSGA
The assay is described as above. The conditions noted are these: human liver microsomes. Type of assay: in vitro ADME. Here is the method: as §1

The target of the next assay is T4, CYP2C19 (Homo sapiens, UniProt P33261).
T4 construct: from tissue; host or cells: human liver microsomes
T4 sequence (P33261 whole entry): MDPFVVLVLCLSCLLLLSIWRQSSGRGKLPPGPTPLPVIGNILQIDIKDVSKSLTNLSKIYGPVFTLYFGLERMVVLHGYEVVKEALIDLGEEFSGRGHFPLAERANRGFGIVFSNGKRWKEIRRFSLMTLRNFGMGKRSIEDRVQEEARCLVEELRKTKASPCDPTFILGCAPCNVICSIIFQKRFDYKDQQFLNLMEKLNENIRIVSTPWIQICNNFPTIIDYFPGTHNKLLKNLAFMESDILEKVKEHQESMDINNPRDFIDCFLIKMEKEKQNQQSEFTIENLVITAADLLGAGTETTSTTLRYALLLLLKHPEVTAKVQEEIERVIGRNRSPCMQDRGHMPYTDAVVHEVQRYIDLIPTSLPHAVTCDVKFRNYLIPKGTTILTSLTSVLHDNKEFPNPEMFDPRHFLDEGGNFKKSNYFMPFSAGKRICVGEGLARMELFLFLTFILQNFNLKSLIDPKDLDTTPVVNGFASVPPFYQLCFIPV
The assay is described as above. Format: in vitro ADME. Particulars: human liver microsomes. As for the experimental part:
as §1

The next assay addresses T5, CYP2D6 (Homo sapiens, UniProt P10635).
T5 construct: from tissue; host or cells: human liver microsomes
Described as above. The conditions noted are these: human liver microsomes. Type of assay: in vitro ADME. As for the experimental part:
as §1

Another assay has as its target hERG potassium channel (Homo sapiens, UniProt Q12809). The assay is described as follows: Inhibition test of the hERG potassium channel (automatic patch clamp, CHO-hERG cells). Type of assay: cell-based. The conditions noted are these: QPatch whole-cell patch clamp, room temperature. As for the experimental part:
To assay the effect of the compound disclosed herein on hERG potassium channel by using automatic patch-clamp method.
The cells stably expressing the hERG potassium channel used in the experiment were CHO-hERE from Aviva Biosciences. CHO-hERG was cultured at 37° C. in 5% CO2.
The CHO-hERG cells used in the experiment were cultured for at least two days, and the cell density reached 75% or more. Before the experiment, the cells were digested with TrypLE, and then the collected cells were resuspended in extracellular fluid.
The extracellular fluid needed to be prepared once a month. The intracellular fluid must be frozen in aliquots at −20° C.
The test compound and its positive control amitriptyline were dissolved in DMSO to obtain a stock solution at a certain concentration. […]
With a holding potential of −80 mv, a voltage stimulation of −50 my was applied for 80 ms to record the cell leakage current value; then hERG channel was opened by a depolarization to +20 my for 4800 ms and hERG tail current was elicited by a repolarization to −50 my for 5000 ms and recorded; and finally, the voltage was restored to the holding potential of −80 my and maintained for 3100 ms. […]
In each complete current recording, the inhibition percentage of each compound at the action concentration could be calculated based on the percentage of peak current in the negative control. […]
(Block of hERG is tested as a sign of cardiac risk.)

Sequence of hERG potassium channel (Q12809 whole entry): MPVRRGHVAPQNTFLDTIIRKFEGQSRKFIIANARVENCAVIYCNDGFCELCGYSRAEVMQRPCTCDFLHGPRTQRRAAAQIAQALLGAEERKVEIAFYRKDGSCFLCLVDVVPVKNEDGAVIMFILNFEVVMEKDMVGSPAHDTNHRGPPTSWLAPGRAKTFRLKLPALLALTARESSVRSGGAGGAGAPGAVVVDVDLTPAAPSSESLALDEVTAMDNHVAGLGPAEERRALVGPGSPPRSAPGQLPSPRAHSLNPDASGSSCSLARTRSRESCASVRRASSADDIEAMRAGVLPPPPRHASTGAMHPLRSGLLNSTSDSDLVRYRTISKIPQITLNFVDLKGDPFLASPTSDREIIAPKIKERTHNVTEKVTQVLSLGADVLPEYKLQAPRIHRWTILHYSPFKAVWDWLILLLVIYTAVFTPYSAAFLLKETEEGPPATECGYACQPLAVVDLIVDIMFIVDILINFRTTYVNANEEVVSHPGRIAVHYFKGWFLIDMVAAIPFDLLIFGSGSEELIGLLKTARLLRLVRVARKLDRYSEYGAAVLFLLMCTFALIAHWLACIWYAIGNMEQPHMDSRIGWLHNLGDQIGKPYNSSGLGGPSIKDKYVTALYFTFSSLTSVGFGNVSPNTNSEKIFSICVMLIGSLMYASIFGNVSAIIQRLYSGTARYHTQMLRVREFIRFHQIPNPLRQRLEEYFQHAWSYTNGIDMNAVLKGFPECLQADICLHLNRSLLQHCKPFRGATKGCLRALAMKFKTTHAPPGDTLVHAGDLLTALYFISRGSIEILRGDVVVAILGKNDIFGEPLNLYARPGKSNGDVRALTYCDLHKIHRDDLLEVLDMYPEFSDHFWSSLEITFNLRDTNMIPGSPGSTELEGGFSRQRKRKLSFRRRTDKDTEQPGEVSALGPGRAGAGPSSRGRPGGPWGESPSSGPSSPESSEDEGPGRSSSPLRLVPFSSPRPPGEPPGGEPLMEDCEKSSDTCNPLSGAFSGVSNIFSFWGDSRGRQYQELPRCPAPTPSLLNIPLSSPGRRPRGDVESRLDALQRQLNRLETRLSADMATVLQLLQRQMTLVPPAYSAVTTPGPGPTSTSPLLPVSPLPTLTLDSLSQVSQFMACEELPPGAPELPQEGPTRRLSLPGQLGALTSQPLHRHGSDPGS
T2 sequence (P11712 whole entry): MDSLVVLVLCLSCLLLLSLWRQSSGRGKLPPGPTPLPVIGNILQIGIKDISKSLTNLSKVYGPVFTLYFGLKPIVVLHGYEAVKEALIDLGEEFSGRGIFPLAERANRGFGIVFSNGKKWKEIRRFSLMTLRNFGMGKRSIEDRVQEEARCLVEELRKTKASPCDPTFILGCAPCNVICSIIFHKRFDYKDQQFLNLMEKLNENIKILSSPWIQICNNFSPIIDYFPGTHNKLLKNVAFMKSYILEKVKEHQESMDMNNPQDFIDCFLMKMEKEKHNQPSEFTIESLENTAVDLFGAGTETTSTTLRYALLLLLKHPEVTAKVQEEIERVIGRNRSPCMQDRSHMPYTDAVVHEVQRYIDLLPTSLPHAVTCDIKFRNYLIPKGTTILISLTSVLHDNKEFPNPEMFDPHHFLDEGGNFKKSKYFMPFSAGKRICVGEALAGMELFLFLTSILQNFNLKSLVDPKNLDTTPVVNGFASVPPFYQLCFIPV
T5 sequence (P10635 whole entry): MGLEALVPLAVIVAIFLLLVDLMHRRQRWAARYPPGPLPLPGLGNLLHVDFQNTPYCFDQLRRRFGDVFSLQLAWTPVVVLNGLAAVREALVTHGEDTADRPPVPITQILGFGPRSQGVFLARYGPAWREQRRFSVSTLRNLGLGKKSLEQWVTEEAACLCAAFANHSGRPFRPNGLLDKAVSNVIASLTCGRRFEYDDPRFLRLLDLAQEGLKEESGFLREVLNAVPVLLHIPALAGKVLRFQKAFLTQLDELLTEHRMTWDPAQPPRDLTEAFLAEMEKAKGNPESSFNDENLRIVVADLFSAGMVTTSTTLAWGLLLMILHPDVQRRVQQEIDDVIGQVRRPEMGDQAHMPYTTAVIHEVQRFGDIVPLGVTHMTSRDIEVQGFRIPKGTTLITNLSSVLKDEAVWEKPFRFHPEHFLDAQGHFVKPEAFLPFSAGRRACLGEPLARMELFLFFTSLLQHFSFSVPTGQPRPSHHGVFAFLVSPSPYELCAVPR

In the case of `C[C@]1(NC(=O)C(=O)c2c(Cl)c(C(=O)Nc3cc(F)c(F)c(F)c3)c3n2CCC3)CC[C@H](CC(=O)O)CC1` [Compound 25], the IC50 was greater than 50 µM on CYP1A2; greater than 50 µM against CYP2C9; greater than 50 µM at CYP3A4; greater than 50 µM against CYP2C19; greater than 50 µM against CYP2D6; greater than 40 µM at hERG potassium channel.
Take `C[C@]1(NC(=O)C(=O)c2c(Cl)c(C(=O)Nc3ccc(F)c(F)c3)c3n2CCC3)CC[C@H](CC(=O)O)CC1` [Compound 18]: the IC50 against CYP1A2 is greater than 50 µM; against CYP2C9, greater than 50 µM; against CYP3A4, greater than 50 µM; against CYP2C19, greater than 50 µM; against CYP2D6, greater than 50 µM; against hERG potassium channel, greater than 40 µM.

The term IC50 denotes the concentration that gives 50% inhibition. Read a low IC50 as greater potency.
